{"source": "patent US20250381276A1", "about": "“SMALL MOLECULE CONJUGATED CHARGE-ALTERING RELEASABLE TRANSPORTERS FOR NUCLEIC ACID DELIVERY” (The Board of Trustees of the Leland Stanford Junior …, priority 2022, published 2025)", "system": "peripheral blood lymphocytes", "experiment": "Lymphocyte depletion assay (peripheral blood T and B cells)", "type": "in vivo, BALB/c mice", "settings": "single i.v. dose, 24 hours vs baseline; FTY720 12.9 μg, mRNA 7.5 μg/mouse", "method": "For in vivo administration, CART formulations were prepared adding 18.75 μg of mRNA (18.75 uL of a 1 mg/mL stock) to 205 uL of PBS (pH 5.5) and to this 26.22 uL of CART (from a 2 mmol/L stock in DMSO) were added and mixed for 20 seconds. A total of 100 uL of this formulation was administered i.v. into the tail vein of each mouse, injecting two mice at a time per each treatment group and resulting in a final mRNA dose of 7.5 ug/mouse. CART formulations were injected immediately after mixing (within 20 s).\nBlood was drawn from the submandibular vein of the mice immediately before and 24 hours after treatment with Fluc mRNA-CART complexes prepared and administered as above. In both cases approximately 1 mL of venous blood was collected per mouse into FACS tubes pre-filled with 500 μL of Ca^2+-EDTA. […]\nOne of the potential benefits of functionalizing an mRNA delivery vehicle with a small molecule is to exploit the biological properties of the small molecule for therapeutic purposes. […] Before treatment, mice were bled to measure the baseline levels of circulating T cells (CD3+) and B cells (B220+) calculated through flow cytometry as a percentage of the total peripheral blood lymphocytes. The mice were then bled 24 hours after treatment and the levels of peripheral T and B lymphocytes were measured again (FIG. 5). […]", "data": [{"smiles": "CCCCCCCCc1ccc(CCC(N)(CO)CO)cc1", "note": "[FTY720, fingolimod]", "values": [{"measurement": "Reduction in the percentage of circulating T cells (CD3+)", "result": 84, "unit": "%"}]}]}
